# Target: PIK3CG (human) (UniProt P48736)
# Experiment: Inhibition of PIK3CG Kinase Activity
# Sequence of PIK3CG (human) (P48736 whole entry, looked up): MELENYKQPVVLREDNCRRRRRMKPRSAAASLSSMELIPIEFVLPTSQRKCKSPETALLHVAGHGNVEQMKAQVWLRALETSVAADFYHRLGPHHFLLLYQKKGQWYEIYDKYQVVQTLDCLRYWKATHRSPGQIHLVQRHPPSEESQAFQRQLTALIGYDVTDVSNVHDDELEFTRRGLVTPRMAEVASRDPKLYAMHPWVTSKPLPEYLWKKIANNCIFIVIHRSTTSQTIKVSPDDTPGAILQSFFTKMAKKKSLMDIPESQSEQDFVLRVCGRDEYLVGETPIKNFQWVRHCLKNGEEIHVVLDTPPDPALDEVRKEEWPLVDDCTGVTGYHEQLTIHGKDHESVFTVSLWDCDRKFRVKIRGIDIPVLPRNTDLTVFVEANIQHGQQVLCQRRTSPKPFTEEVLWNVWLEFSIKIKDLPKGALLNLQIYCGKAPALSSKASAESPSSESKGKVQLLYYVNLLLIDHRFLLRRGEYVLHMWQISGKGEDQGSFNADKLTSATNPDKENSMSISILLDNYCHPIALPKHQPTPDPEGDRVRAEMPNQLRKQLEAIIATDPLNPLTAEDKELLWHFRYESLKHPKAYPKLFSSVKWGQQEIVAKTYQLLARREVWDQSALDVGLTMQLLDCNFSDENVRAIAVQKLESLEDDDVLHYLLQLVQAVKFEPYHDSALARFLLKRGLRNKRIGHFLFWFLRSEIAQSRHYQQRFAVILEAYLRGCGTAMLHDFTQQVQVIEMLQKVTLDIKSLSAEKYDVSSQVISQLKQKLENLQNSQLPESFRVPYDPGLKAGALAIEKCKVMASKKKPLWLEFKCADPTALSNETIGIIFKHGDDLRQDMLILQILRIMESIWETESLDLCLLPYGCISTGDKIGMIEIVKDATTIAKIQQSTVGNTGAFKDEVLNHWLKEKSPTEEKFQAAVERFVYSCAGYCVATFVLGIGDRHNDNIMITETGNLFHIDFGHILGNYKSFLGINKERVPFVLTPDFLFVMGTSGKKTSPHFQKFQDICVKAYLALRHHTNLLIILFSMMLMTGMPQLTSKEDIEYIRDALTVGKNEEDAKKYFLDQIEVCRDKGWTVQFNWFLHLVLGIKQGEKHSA
row,Ki [nM],SMILES
1,< 100,COc1cc(-c2ccc3c(n2)CN(c2cnn(Cc4cncn4C)c2)C3=O)cnc1OC
2,100 to 490,CCOCCCOc1ncc(-c2cc(C)c3c(n2)CN(c2cnn(CC(F)(F)F)c2)C3=O)cc1OC
3,< 100,COc1cc(-c2cc(C)c3c(n2)CN(c2cnn(CC(F)(F)F)c2)C3=O)ccn1
4,< 100,CCCn1nc(N2Cc3nc(-c4cnc(OC)c(OC)c4)cc(C)c3C2=O)cc1COC
5,< 100,Cc1cc(-c2cc(O)cc(OC(F)(F)F)c2)nc2c1C(=O)N(c1cnn(CC(F)(F)F)c1)C2
6,< 100,Cc1cc(-c2cncc(OCC(F)(F)F)c2)nc2c1C(=O)N(c1cn(CC(F)(F)F)cn1)C2
7,< 100,Cc1cc(-c2cncc(OC(F)F)c2)nc2c1C(=O)N(c1cnn(C[C@@H](C)O)c1)C2
8,100 to 490,COc1cc(-c2ccc3c(c2)CN(c2cc(C)n(C)n2)C3=O)cnc1OC
9,< 100,CO[C@@H]1c2nc(-c3cncc(OCC(F)F)c3)cc(C)c2C(=O)N1c1cnn(CC(F)(F)F)c1
10,< 100,COc1cc(-c2ccc3c(c2)CN(c2cn[nH]c2)C3=O)cnc1OC
11,< 100,COc1cc(-c2cc(C)c3c(n2)CN(c2cncc(CO)c2)C3=O)cnc1OC
12,< 100,COc1ncc(-c2cc(C)c3c(n2)CN(c2cnn(CC(F)(F)F)c2)C3=O)cc1OC(C)C
13,100 to 490,COc1cc(-c2ccc3c(n2)CN(c2cncc(C#CCO)c2)C3=O)cnc1OC
14,< 100,COCCOc1cc(-c2cc(C)c3c(n2)CN(c2cnn(CC(F)(F)F)c2)C3=O)cnc1OC
15,< 100,COc1cc(-c2ccc3c(n2)CN(c2ccc(N4CCC(CCO)CC4)nc2)C3=O)cnc1OC
16,100 to 490,COc1cc(-c2ccc3c(n2)CN(c2cnn(CC(F)(F)F)c2)C3=O)cnc1OC(F)F
17,< 100,CCn1ncc(N2Cc3cc(-c4cnc(OC)c(OC)c4)ccc3C2=O)n1
18,< 100,CCOc1ncc(-c2cc(C)c3c(n2)CN(c2cc[nH]n2)C3=O)cc1OC
19,< 100,COc1cc(-c2cc(C)c3c(n2)C(OC(C)C)N(c2cnn(CC(F)(F)F)c2)C3=O)cnc1OC (stereo not drawn)

row,Ki [nM],SMILES
1,< 100,COc1cc(-c2cc(C)c3c(c2)C(C)N(c2cnn(CC(F)(F)F)c2)C3=O)cnc1OC (stereo not drawn)
2,< 100,CCn1ccc(N2C(=O)c3c(C)cc(-c4cncc(OCC(F)F)c4)nc3C2C)n1 (stereo not drawn)
3,< 100,COc1cc(-c2ccc3c(n2)C(C)N(c2cncc(C(O)C(F)(F)F)c2)C3=O)cnc1OC (stereo not drawn)
4,100 to 490,CC(C)(C#N)n1cc(N2Cc3nc(-c4cncc(OC(F)F)c4)ccc3C2=O)cn1
5,100 to 490,COc1cncc(-c2cc(C)c3c(n2)C(C)(C)N(c2cnn(C4CC4)c2)C3=O)c1
6,< 100,COc1cc(-c2ccc3c(n2)C(C)N(c2cc[nH]n2)C3=O)cnc1OC (stereo not drawn)
7,< 100,CCOc1cc(-c2cc(C)c3c(n2)CN(c2cnn(CC)c2)C3=O)cnc1OC
8,< 100,COc1cncc(-c2cc(C)c3c(n2)[C@]2(CCOC2)N(c2cnn(CC(F)(F)F)c2)C3=O)c1
9,< 100,COc1cc(-c2cc(C)c3c(n2)C2(CCCO2)N(c2cnn(CC(F)(F)F)c2)C3=O)cnc1OC (stereo not drawn)
10,< 100,COc1cncc(-c2cc(C)c3c(n2)CN(c2ccn([C@@H]4CCOC4)n2)C3=O)c1
11,< 100,CCn1ccc(N2Cc3nc(-c4cnc(OC)c(OCC5CC5)c4)cc(C)c3C2=O)n1
12,< 100,Cc1cc(-c2cnc(C)c(O)c2)nc2c1C(=O)N(c1cnn(CC(F)(F)F)c1)C2(C)C
13,< 100,CCCOc1cc(-c2cc(C)c3c(n2)CN(c2cn[nH]c2)C3=O)cnc1OC
14,< 100,Cc1cc(-c2cncc(C(F)(F)F)c2)cc2c1C(=O)N(c1cnn(CC(F)(F)F)c1)C2C (stereo not drawn)
15,< 100,Cc1cc(-c2cncc(C(=O)NC3CC3)c2)nc2c1C(=O)N(c1cnn(CC(F)(F)F)c1)C2
16,< 100,CCCOC1c2nc(-c3cnc(OC)c(OC)c3)cc(C)c2C(=O)N1c1cnn(CC(F)(F)F)c1 (stereo not drawn)
17,< 100,Cc1cc(-c2cncc(OCC(F)F)c2)nc2c1C(=O)N(c1cnn(CC(F)(F)F)c1)C21CCOCC1
18,< 100,COc1cc(OC)cc(-c2cc(C)c3c(n2)CN(c2cnn(CC#N)c2)C3=O)c1
19,< 100,COc1cc(-c2cc(C)c3c(n2)[C@](C)(OC)N(c2cnn(CC(F)(F)F)c2)C3=O)cnc1OC

# Source: the Kinase Knowledgebase extract (Sharma et al. 2016)
